Source: patent US8207172B2 (Bayer Intellectual Property GmbH, priority 2004, dated 2012)
Counter-ions that a name gives are not always drawn.

Tests used:
[1] = system: A431 cells (human epidermoid carcinoma); experiment: In vitro tumor cell proliferation assay (Cell Titer-Glo luminescent cell viability), A431; type: cell-based; conditions: A-431, 72 h, 72 hours of drug exposure, ATP luminescence readout, read-out: IC50, anti-proliferative activity (inhibition of cell proliferation)
How it was run: (§1)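 Proliferation inhibition was measured as ATP-dependent luciferase signal after cells in RPMI with 10% FBS received test compound for 72 h at 37° C. Final concentrations spanned […] to 64 pM in 0.1% DMSO; IC50 values were derived.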

[2] = system: BT474 (human breast carcinoma); experiment: In vitro tumor cell proliferation assay (Cell Titer-Glo luminescent cell viability), BT474; type: cell-based; conditions: BT-474, 72 h, BT474 cells, 72 hours of drug exposure, ATP luminescence readout, read-out: IC50, anti-proliferative activity (inhibition of cell proliferation)
How it was run: as §1

COCCNCCn1cc2c(n1)CCc1c-2sc2ncnc(Nc3ccc(F)c(Cl)c3)c12 [Example 4, N-(3-chloro-4-fluorophenyl)-2-{2-[(2-methoxyethyl)amino]ethyl}-4,5-dihydro-2H-pyrimido[5′,4′:4,5]thieno[2,3-e]indazol-6-amine]
IC50 [1]: ≤ 5 µM | IC50 [2]: ≤ 5 µM

Fc1cccc(COc2ccc(Nc3ncnc4sc5c(c34)CCc3n[nH]cc3-5)cc2Cl)c1 [Example 74, N-{3-chloro-4-[(3-fluorobenzyl)oxy]phenyl}-4,5-dihydro-2H-pyrimido[5′,4′:4,5]thieno[2,3-e]indazol-6-amine]
IC50 [1]: ≤ 5 µM | IC50 [2]: ≤ 1 µM

CS(=O)(=O)CCNCCn1cc2c(n1)CCc1c-2sc2ncnc(Nc3ccc(OCc4ccccn4)c(Cl)c3)c12 [Example 105, N-[3-chloro-4-(pyridin-2-ylmethoxy)phenyl]-2-(2-{[2-(methylsulfonyl)ethyl]amino}ethyl)-4,5-dihydro-2H-pyrimido[5′,4′:4,5]thieno[2,3-e]indazol-6-amine]
IC50 [1]: ≤ 5 µM | IC50 [2]: ≤ 1 µM

OCCN(CCO)CCn1ncc2c1CCc1c-2sc2ncnc(Nc3ccc(F)c(Cl)c3)c12 [Example 91, 2,2′-[(2-{6-[(3-chloro-4-fluorophenyl)amino]-4,5-dihydro-3H-pyrimido[5′,4′:4,5]thieno[2,3-e]indazol-3-yl}ethyl)imino]diethanol trifluoroacetate (salt)]
IC50 [1]: ≤ 5 µM | IC50 [2]: ≤ 5 µM

COCCNCCn1ncc2c1CCc1c-2sc2ncnc(Nc3ccc(OCc4ccccn4)c(Cl)c3)c12 [Example 113, N-[3-chloro-4-(pyridin-2-ylmethoxy)phenyl]-3-{2-[(2-methoxyethyl)amino]ethyl}-4,5-dihydro-3H-pyrimido[5′,4′:4,5]thieno[2,3-e]indazol-6-amine]
IC50 [1]: ≤ 50 µM | IC50 [2]: ≤ 1 µM

Fc1cccc(COc2ccc(Nc3ncnc4sc5c(c34)CCc3nn(CC4CCNCC4)cc3-5)cc2Cl)c1 [Example 232, N-{3-chloro-4-[(3-fluorobenzyl)oxy]phenyl}-2-(piperidin-4-ylmethyl)-4,5-dihydro-2H-pyrimido[5′,4′:4,5]thieno[2,3-e]indazol-6-amine]
IC50 [1]: ≤ 5 µM | IC50 [2]: ≤ 1 µM

CN1CCN(CCn2cc3c(n2)CCc2c-3sc3ncnc(Nc4ccc(OCc5ccccc5Cl)c(Cl)c4)c23)CC1 [Example 332, N-{3-chloro-4-[(2-chlorobenzyl)oxy]phenyl}-2-[2-(4-methylpiperazin-1-yl)ethyl]-4,5-dihydro-2H-pyrimido[5′,4′:4,5]thieno[2,3-e]indazol-6-amine]
IC50 [1]: ≤ 5 µM | IC50 [2]: ≤ 1 µM

CS(=O)(=O)OCCn1ncc2c1CCc1c-2sc2ncnc(Nc3ccc4c(cnn4Cc4cccc(F)c4)c3)c12 [Example 290, 2-(6-{[1-(3-fluorobenzyl)-1H-indazol-5-yl]amino}-4,5-dihydro-3H-pyrimido[5′,4′:4,5]thieno[2,3-e]indazol-3-yl)ethyl methanesulfonate]
IC50 [1]: ≤ 5 µM | IC50 [2]: ≤ 1 µM

CCN1CCC(n2cc3c(n2)CCc2c-3sc3ncnc(Nc4ccc(OCc5cccc(F)c5)c(Cl)c4)c23)CC1 [Example 230, N-{3-chloro-4-[(3-fluorobenzyl)oxy]phenyl}-2-(1-ethylpiperidin-4-yl)-4,5-dihydro-2H-pyrimido[5′,4′:4,5]thieno[2,3-e]indazol-6-amine]
IC50 [1]: ≤ 5 µM | IC50 [2]: ≤ 1 µM

O=C(Cn1cc2c(n1)CCc1c-2sc2ncnc(Nc3ccc(OCc4cccc(F)c4)c(Cl)c3)c12)NCCN1CCOCC1 [Example 189, 2-[6-({3-chloro-4-[(3-fluorobenzyl)oxy]phenyl}amino)-4,5-dihydro-2H-pyrimido[5′,4′:4,5]thieno[2,3-e]indazol-2-yl]-N-(2-morpholin-4-ylethyl)acetamide]
IC50 [1]: ≤ 50 µM | IC50 [2]: ≤ 1 µM

CN1CCN(CCn2cc3c(n2)CCc2c-3sc3ncnc(Nc4ccc(OCc5cccc(F)c5)c(Cl)c4)c23)CC1 [Example 62, N-{3-chloro-4-[(3-fluorobenzyl)oxy]phenyl}-2-[2-(4-methylpiperazin-1-yl)ethyl]-4,5-dihydro-2H-pyrimido[5′,4′:4,5]thieno[2,3-e]indazol-6-amine]
IC50 [1]: ≤ 5 µM | IC50 [2]: ≤ 1 µM

Cc1cc(Nc2ncnc3sc4c(c23)CCc2nn(CCN3CCN(C)CC3)cc2-4)ccc1OCc1cccc(F)c1 [Example 335, N-{4-[(3-fluorobenzyl)oxy]-3-methylphenyl}-2-[2-(4-methylpiperazin-1-yl)ethyl]-4,5-dihydro-2H-pyrimido[5′,4′:4,5]thieno[2,3-e]indazol-6-amine]
IC50 [1]: ≤ 5 µM | IC50 [2]: ≤ 1 µM

COCCNCCn1ncc2c1CCc1c-2sc2ncnc(Nc3ccc(OCc4cccc(F)c4)c(Cl)c3)c12 [Example 84, N-{3-chloro-4-[(3-fluorobenzyl)oxy]phenyl}-3-{2-[(2-methoxyethyl)amino]ethyl}-4,5-dihydro-3H-pyrimido[5′,4′:4,5]thieno[2,3-e]indazol-6-amine]
IC50 [1]: ≤ 5 µM | IC50 [2]: ≤ 1 µM

Fc1cccc(COc2ccc(Nc3ncnc4sc5c(c34)CCc3c-5cnn3CCN3CCCCC3)cc2Cl)c1 [Example 266, trifluoroacetate]
IC50 [1]: ≤ 5 µM | IC50 [2]: ≤ 1 µM

C[N+]1(C)CCC(n2cc3c(n2)CCc2c-3sc3ncnc(Nc4ccc(OCc5cccc(F)c5)c(Cl)c4)c23)CC1 [Example 225, 4-[6-({3-chloro-4-[(3-fluorobenzyl)oxy]phenyl}amino)-4,5-dihydro-2H-pyrimido[5′,4′:4,5]thieno[2,3-e]indazol-2-yl]-1,1-dimethylpiperidinium trifluoroacetate]
IC50 [1]: ≤ 50 µM | IC50 [2]: ≤ 5 µM

Fc1ccc(Nc2ncnc3sc4c(c23)CCc2nn(CCN3CCOCC3)cc2-4)cc1Cl [Example 5, N-(3-chloro-4-fluorophenyl)-2-(2-morpholin-4-ylethyl)-4,5-dihydro-2H-pyrimido[5′,4′:4,5]thieno[2,3-e]indazol-6-amine]
IC50 [1]: ≤ 5 µM | IC50 [2]: ≤ 5 µM

COCCN(CCOC)CCn1cc2c(n1)CCc1c-2sc2ncnc(Nc3ccc4c(cnn4Cc4cccc(F)c4)c3)c12 [Example 285, 2-{2-[bis(2-methoxyethyl)amino]ethyl}-N-[1-(3-fluorobenzyl)-1H-indazol-5-yl]-4,5-dihydro-2H-pyrimido[5′,4′:4,5]thieno[2,3-e]indazol-6-amine]
IC50 [1]: ≤ 5 µM | IC50 [2]: ≤ 1 µM

CC(C)NC[C@@H](O)Cn1cc2c(n1)CCc1c-2sc2ncnc(Nc3ccc(OCc4cccc(F)c4)c(Cl)c3)c12 [Example 159, (2R)-1-[6-({3-chloro-4-[(3-fluorobenzyl)oxy]phenyl}amino)-4,5-dihydro-2H-pyrimido[5′,4′:4,5]thieno[2,3-e]indazol-2-yl]-3-(isopropylamino)propan-2-ol trifluoroacetate (salt)]
IC50 [1]: ≤ 50 µM | IC50 [2]: ≤ 5 µM

Clc1cc(Nc2ncnc3sc4c(c23)CCc2nn(CCN3CCOCC3)cc2-4)ccc1OCc1ccccc1 [Example 126, N-[4-(benzyloxy)-3-chlorophenyl]-2-(2-morpholin-4-ylethyl)-4,5-dihydro-2H-pyrimido[5′,4′:4,5]thieno[2,3-e]indazol-6-amine]
IC50 [1]: ≤ 50 µM | IC50 [2]: ≤ 1 µM

O=C(CN1CCOCC1)N1CCC(Cn2cc3c(n2)CCc2c-3sc3ncnc(Nc4ccc(OCc5cccc(F)c5)c(Cl)c4)c23)CC1 [Example 238, N-{3-chloro-4-[(3-fluorobenzyl)oxy]phenyl}-2-{[1-(morpholin-4-ylacetyl)piperidin-4-yl]methyl}-4,5-dihydro-2H-pyrimido[5′,4′:4,5]thieno[2,3-e]indazol-6-amine]
IC50 [1]: ≤ 5 µM | IC50 [2]: ≤ 1 µM

NS(=O)(=O)OCCn1cc2c(n1)CCc1c-2sc2ncnc(Nc3ccc(OCc4cccc(F)c4)c(Cl)c3)c12 [Example 311, 2-[6-({3-chloro-4-[(3-fluorobenzyl)oxy]phenyl}amino)-4,5-dihydro-2H-pyrimido[5′,4′:4,5]thieno[2,3-e]indazol-2-yl]ethyl sulfamate]
IC50 [1]: ≤ 50 µM | IC50 [2]: ≤ 1 µM

CC(C)(C)OC(=O)N1CCN(CCn2cc3c(n2)CCc2c-3sc3ncnc(Nc4ccc(OCc5cccc(F)c5)c(Cl)c4)c23)CC1 [Example 72, tert-butyl 4-{2-[6-({3-chloro-4-[(3-fluorobenzyl)oxy]phenyl}amino)-4,5-dihydro-2H-pyrimido[5′,4′:4,5]thieno[2,3-e]indazol-2-yl]ethyl}piperazine-1-carboxylate]
IC50 [1]: ≤ 50 µM | IC50 [2]: ≤ 50 µM

Clc1cc(Nc2ncnc3sc4c(c23)CCc2n[nH]cc2-4)ccc1OCc1ccccc1 [Example 127, N-[4-(benzyloxy)-3-chlorophenyl]-4,5-dihydro-2H-pyrimido[5′,4′:4,5]thieno[2,3-e]indazol-6-amine]
IC50 [1]: ≤ 5 µM | IC50 [2]: ≤ 1 µM

Cc1ccc(Oc2ccc(Nc3ncnc4sc5c(c34)CCc3nn(CCN4CCN(C)CC4)cc3-5)cc2C)cn1 [Example 49, N-{3-methyl-4-[(6-methylpyridin-3-yl)oxy]phenyl}-2-[2-(4-methylpiperazin-1-yl)ethyl]-4,5-dihydro-2H-pyrimido[5′,4′:4,5]thieno[2,3-e]indazol-6-amine]
IC50 [1]: ≤ 5 µM | IC50 [2]: ≤ 1 µM

CN(C)[C@@H]1CCN(CCn2cc3c(n2)CCc2c-3sc3ncnc(Nc4ccc(F)c(Cl)c4)c23)C1 [Example 3, N-(3-chloro-4-fluorophenyl)-2-{2-[(3R)-3-(dimethylamino)pyrrolidin-1-yl]ethyl}-4,5-dihydro-2H-pyrimido[5′,4′:4,5]thieno[2,3-e]indazol-6-amine]
IC50 [1]: ≤ 5 µM | IC50 [2]: ≤ 5 µM

CN(C)[C@H]1CCN(CCn2cc3c(n2)CCc2c-3sc3ncnc(Nc4ccc(F)c(Cl)c4)c23)C1 [Example 2, N-(3-chloro-4-fluorophenyl)-2-{2-[(3S)-3-(dimethylamino)pyrrolidin 1-yl]ethyl}-4,5-dihydro-2H-pyrimido[5′,4′:4,5]thieno[2,3-e]indazol-6-amine]
IC50 [1]: ≤ 5 µM | IC50 [2]: ≤ 1 µM
